Key:
[1] = test system: Norovirus 3CL protease (Norovirus); assay: Inhibition of Norovirus 3CL protease by FRET assay
Norovirus = assay: Antiviral activity against Norovirus in cell-based replicon system
Trypsin (Homo sapiens) = Trypsin (Homo sapiens) (UniProt P07477+P07478+P35030); assay: Inhibition of trypsin (unknown origin) at 125 uM after 30 mins; format: protein assay
Homo sapiens [2] = species: Homo sapiens; assay: Inhibition of alpha-chymotrypsin (unknown origin) at 2.5 uM after 30 mins
[3] = target: Prothrombin (Homo sapiens) (UniProt P00734); assay: Inhibition of thrombin (unknown origin) at 2.75 uM after 30 mins
[4] = target: T1, Carboxypeptidase A1 (Homo sapiens) (UniProt P15085); assay: Inhibition of carboxypeptidase A (unknown origin) at 43 uM after 30 mins
T1 sequence (whole entry): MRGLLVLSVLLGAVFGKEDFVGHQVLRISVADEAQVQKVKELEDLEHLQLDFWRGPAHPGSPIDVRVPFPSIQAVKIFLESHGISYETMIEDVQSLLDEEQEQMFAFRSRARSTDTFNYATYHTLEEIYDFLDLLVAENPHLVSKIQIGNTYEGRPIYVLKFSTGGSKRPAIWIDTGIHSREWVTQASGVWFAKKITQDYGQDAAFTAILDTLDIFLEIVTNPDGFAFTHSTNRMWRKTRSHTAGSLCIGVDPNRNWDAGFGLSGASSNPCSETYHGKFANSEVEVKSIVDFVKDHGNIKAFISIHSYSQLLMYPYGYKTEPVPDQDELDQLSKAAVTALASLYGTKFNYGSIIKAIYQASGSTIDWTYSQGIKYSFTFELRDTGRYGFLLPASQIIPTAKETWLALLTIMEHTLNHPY

Homo sapiens [5] = species: Homo sapiens; assay: Inhibition of human neutrophil elastase at 17.5 uM after 30 mins

| SMILES | IC50 [1] | EC50 (Norovirus) | also measured |
| --- | --- | --- | --- |
| CCOP(=O)(OCC)C(O)[C@H](CC1CCNC1=O)NC(=O)[C@H](CC(C)C)NC(=O)OCc1ccccc1 (mixture of isomers) | 11.5 µM | 0.8 µM | – |
| COP(=O)(OC)C(O)[C@H](CC1CCNC1=O)NC(=O)[C@H](CC(C)C)NC(=O)OCc1ccccc1 (mixture of isomers) | 20.2 µM | 3.5 µM | – |
| CCOP(=O)(OCC)C(O)[C@H](CC1CCNC1=O)NC(=O)[C@H](CC1CCCCC1)NC(=O)OCc1ccccc1 (mixture of isomers) | 3.5 µM | 0.25 µM | inhibition (Trypsin (Homo sapiens)): 0%; inhibition (Homo sapiens [2]): 0%; inhibition [3]: 0%; inhibition [4]: 0%; inhibition (Homo sapiens [5]): 15% |
| O=C(N[C@@H](CC1CCCCC1)C(=O)N[C@@H](CC1CCNC1=O)C(O)P(=O)(OCC(F)(F)F)OCC(F)(F)F)OCc1ccccc1 (mixture of isomers) | 6.5 µM | 0.35 µM | – |
| CC(C)C[C@H](NC(=O)OCc1ccccc1)C(=O)N[C@@H](CC1CCNC1=O)C(O)P(=O)(O)O (mixture of isomers) | – | 7.5 µM | – |
| O=C(N[C@@H](CC1CCCCC1)C(=O)N[C@@H](CC1CCNC1=O)C(O)P(=O)(OCc1ccccc1)OCc1ccccc1)OCc1ccccc1 (mixture of isomers) | – | 0.6 µM | – |
| COP(=O)(OC)C(O)[C@H](CC1CCNC1=O)NC(=O)[C@H](CC1CCCCC1)NC(=O)OCc1ccccc1 (mixture of isomers) | 8.3 µM | 2.8 µM | – |
| CCCCOP(=O)(OCCCC)C(O)[C@H](CC1CCNC1=O)NC(=O)[C@H](CC1CCCCC1)NC(=O)OCc1ccccc1 (mixture of isomers) | – | 0.5 µM | – |

Source: ChEMBL document CHEMBL2434955, “Potent inhibition of norovirus by dipeptidyl α-hydroxyphosphonate transition state mimics” (Bioorg Med Chem Lett, 2013)
